Results published in patent publication US11649251B2, “Substituted inhibitors of menin-MLL and methods of use” (Kura Oncology, Inc., priority 2017, dated 2023).

These molecules were tested against T1, Menin MLL 4-43 (Homo sapiens, UniProt O00255) (assay: Fluorescence polarization (FP) competition assay of the menin-MLL interaction). Details: fluorescence polarization competition with fluorescein-labeled MLL peptide.
T1 sequence (O00255 1-610): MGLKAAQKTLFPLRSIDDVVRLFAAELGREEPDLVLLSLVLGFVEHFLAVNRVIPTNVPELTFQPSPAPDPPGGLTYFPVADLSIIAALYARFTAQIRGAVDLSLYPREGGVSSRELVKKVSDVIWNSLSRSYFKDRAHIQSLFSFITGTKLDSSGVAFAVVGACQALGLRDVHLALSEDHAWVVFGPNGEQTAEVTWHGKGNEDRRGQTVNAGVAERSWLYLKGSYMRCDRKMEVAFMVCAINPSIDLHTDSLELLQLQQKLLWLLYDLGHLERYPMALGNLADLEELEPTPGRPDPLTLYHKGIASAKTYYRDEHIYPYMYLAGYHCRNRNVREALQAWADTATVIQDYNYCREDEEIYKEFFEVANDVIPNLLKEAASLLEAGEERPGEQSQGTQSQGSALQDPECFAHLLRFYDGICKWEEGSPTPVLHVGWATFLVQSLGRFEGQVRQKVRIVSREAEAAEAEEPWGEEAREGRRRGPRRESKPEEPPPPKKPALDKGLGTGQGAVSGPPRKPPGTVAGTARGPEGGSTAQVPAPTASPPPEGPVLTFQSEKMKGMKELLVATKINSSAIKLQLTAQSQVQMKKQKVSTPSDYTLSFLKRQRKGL
Type: binding
From the text: This example illustrates an assay effective in monitoring the binding of MLL to menin. […] A fluorescein-labeled peptide containing the high affinity menin binding motif found in MLL was produced according to Yokoyama et al. (Cell, 2005, 123(2): 207-218), herein incorporated by reference in its entirety. Binding of the labeled peptide (1.7 kDa) to the much larger menin (˜67 kDa) is accompanied by a significant change in the rotational correlation time of the fluorophore, resulting in a substantial increase in the fluorescence polarization and fluorescence anisotropy (excitation at 500 nm, emission at 525 nm).
With `CNS(=O)(=O)N1CCN([C@@H](C)Cn2c(C#N)cc3c(C)c(CN4CCC5(CCN(c6nc(C)nc7sc(CC(F)(F)F)cc67)C5)C4)ccc32)CC1` (stereo partly drawn) [Compound 1, 4-((2S)-1-(2-cyano-4-methyl-5-((7-(2-methyl-6-(2,2,2-trifluoroethyl)thieno[2,3-d]pyrimidin-4-yl)-2,7-diazaspiro[4.4]nonan-2-yl)methyl)-1H-indol-1-yl)propan-2-yl)-N-methylpiperazine-1-sulfonamide] the IC50 was 50 to 250 nM. Work on `CCC(=O)NC12CC(Cn3c(C#N)cc4c(C)c(CN5CCC6(CCN(c7nc(C)nc8sc(CC(F)(F)F)cc78)C6)C5)ccc43)(C1)C2` (stereo not shown) [Compound 3, N-(3-((2-cyano-4-methyl-5-((7-(2-methyl-6-(2,2,2-trifluoroethyl)thieno[2,3-d]pyrimidin-4-yl)-2,7-diazaspiro[4.4]nonan-2-yl)methyl)-1H-indol-1-yl)methyl)bicyclo[1.1.1]pentan-1-yl)propionamide] yielded an IC50 of 250 to 1000 nM. Molecule `CNc1nc(N2CCC3(CCN(Cc4ccc5c(cc(C#N)n5C[C@H](C)N5CCN(S(=O)(=O)NC)CC5)c4C)C3)C2)c2cc(CC(F)(F)F)sc2n1` (stereo partly shown) [Compound 5] has an IC50 of less than 50 nM. Molecule `Cc1nc(N2CCC3(CCN(Cc4ccc5c(cc(C#N)n5C[C@H](C)N5CCN(S(C)(=O)=O)CC5)c4C)C3)C2)c2cc(CC(F)(F)F)sc2n1` (stereo partly shown) [Compound 8] has an IC50 of 50 to 250 nM. With `CNc1nc(N2CCC3(CCN(Cc4ccc5c(cc(C#N)n5C[C@H](C)N5CCN(S(C)(=O)=O)CC5)c4C)C3)C2)c2cc(CC(F)(F)F)sc2n1` (stereo partly shown) [Compound 9] the IC50 was 50 to 250 nM. In the case of `CCC(=O)NC12CC(Cn3c(C#N)cc4c(C)c(CN5CCC6(CCN(c7nc(NC)nc8sc(CC(F)(F)F)cc78)C6)C5)ccc43)(C1)C2` (stereo not shown) [Compound 11], the IC50 is reported as 50 to 250 nM. Molecule `CNc1nc(N2CCC3(CCN(C[C@H]4CC[C@H](NS(C)(=O)=O)CC4)C3)C2)c2cc(CC(F)(F)F)sc2n1` (stereo partly shown) [Compound 14] has an IC50 of less than 50 nM. Work on `Cc1nc(N2CCC3(CCN(Cc4ccc5c(cc(C#N)n5C[C@H](C)N5CCN(S(C)(=O)=O)CC5)c4C)C3)C2)c2cc(CC(F)(F)F)sc2n1` (stereo partly shown) [Compound 17] yielded an IC50 of less than 50 nM. `Cc1nc(N2CCC3(CCN(Cc4ccc5c(cc(C#N)n5C[C@@H]5CNC(=O)CO5)c4C)C3)C2)c2cc(CC(F)(F)F)sc2n1` (stereo partly shown) [Compound 21] gave an IC50 of less than 50 nM. `CNc1nc(N2CCC3(CCN(Cc4ccc5c(cc(C#N)n5C[C@@H]5CNC(=O)CO5)c4C)C3)C2)c2cc(CC(F)(F)F)sc2n1` (stereo partly shown) [Compound 22] was tested, and the IC50 was less than 50 nM. `Cc1nc(N2CCC3(CCN(Cc4ccc(NS(C)(=O)=O)cc4)C3)C2)c2cc(CC(F)(F)F)sc2n1` (stereo not shown) [Compound 25] showed an IC50 of 250 to 1000 nM. For `CNc1nc(N2CCC3(CCN(Cc4ccc(NS(C)(=O)=O)cc4)C3)C2)c2cc(CC(F)(F)F)sc2n1` (stereo not shown) [Compound 26], the IC50 was 50 to 250 nM. With `Cc1nc(N2CCC3(CCN(Cc4ccc5c(c4)[nH]c(=O)n5CCO)C3)C2)c2cc(CC(F)(F)F)sc2n1` (stereo not shown) [Compound 29] the IC50 was 250 to 1000 nM. `CNc1nc(N2CCC3(CCN(Cc4ccc5c(c4)[nH]c(=O)n5CCO)C3)C2)c2cc(CC(F)(F)F)sc2n1` (stereo not shown) [Compound 30] showed an IC50 of less than 50 nM. `Cc1nc(N2CCC3(CCN(Cc4ccc5[nH]c(C#N)cc5c4C)C3)C2)c2cc(CC(F)(F)F)sc2n1` (stereo not shown) [Compound 41] gave an IC50 greater than 1000 nM. `CNc1nc(N2CCC3(CCN(Cc4ccc5[nH]c(C#N)cc5c4C)C3)C2)c2cc(CC(F)(F)F)sc2n1` (stereo not shown) [Compound 42] showed an IC50 of 250 to 1000 nM. For `Cc1c(CN2CCC3(CCN(c4ncnc5sc(CC(F)(F)F)cc45)C3)C2)ccc2c1cc(C#N)n2C[C@H](C)N1CCN(S(C)(=O)=O)CC1` (stereo partly shown) [Compound 43], the IC50 was less than 50 nM. For `Cc1c(CN2CCC3(CCN(c4ncnc5sc(CC(F)(F)F)cc45)C3)C2)ccc2c1cc(C#N)n2C[C@@H]1CNC(=O)OC1` (stereo partly shown) [Compound 44], the IC50 was less than 50 nM. With `CNS(=O)(=O)N1CCN([C@@H](C)Cn2c(C#N)cc3c(C)c(CN4CCC5(CCN(c6ncnc7sc(CC(F)(F)F)cc67)C5)C4)ccc32)CC1` (stereo partly shown) [Compound 45] the IC50 was less than 50 nM. Molecule `CNc1nc(N2CCC3(CCN(Cc4ccc5c(cc(C#N)n5CCN5CCN(S(=O)(=O)NC)CC5)c4C)C3)C2)c2cc(CC(F)(F)F)sc2n1` (stereo not shown) [Compound 46] has an IC50 of 50 to 250 nM. With `CNc1nc(N2CCC3(CCN(Cc4ccc5c(cc(C#N)n5C[C@H](C)N5CCC(S(=O)(=O)NC)CC5)c4C)C3)C2)c2cc(CC(F)(F)F)sc2n1` (stereo partly shown) [Compound 68] the IC50 was less than 50 nM. `CNS(=O)(=O)C1CCN([C@@H](C)Cn2c(C#N)cc3c(C)c(CN4CCC5(CCN(c6nc(C)nc7sc(CC(F)(F)F)cc67)C5)C4)ccc32)CC1` (stereo partly shown) [Compound 69] was tested, and the IC50 was less than 50 nM. With `CNS(=O)(=O)C1CCN([C@@H](C)Cn2c(C#N)cc3c(C)c(CN4CCC5(CCN(c6ncnc7sc(CC(F)(F)F)cc67)C5)C4)ccc32)CC1` (stereo partly shown) [Compound 70] the IC50 was less than 50 nM. For `CNc1nc(N2CCC3(CCN(Cc4ccc5c(cc(C#N)n5C[C@H](C)N5CCC(S(C)(=O)=O)CC5)c4C)C3)C2)c2cc(CC(F)(F)F)sc2n1` (stereo partly shown) [Compound 75], the IC50 was less than 50 nM. `CNc1nc(N2CCC3(CCN(Cc4ccc5c(cc(C#N)n5CCN5CCC(S(C)(=O)=O)CC5)c4C)C3)C2)c2cc(CC(F)(F)F)sc2n1` (stereo not shown) [Compound 77] showed an IC50 of less than 50 nM. `CNc1nc(N2CCC3(CCN(Cc4ccc(NS(=O)(=O)NC)cc4)C3)C2)c2cc(CC(F)(F)F)sc2n1` (stereo not shown) [Compound 96] gave an IC50 greater than 1000 nM. `Cc1c(CN2CCC3(CCN(c4nc(N)nc5sc(CC(F)(F)F)cc45)C3)C2)ccc2[nH]c(C#N)cc12` (stereo not shown) [Compound 125] gave an IC50 greater than 1000 nM. In the case of `CCS(=O)(=O)Nc1ccc(CN2CCC3(CCN(c4nc(NC)nc5sc(CC(F)(F)F)cc45)C3)C2)cc1` (stereo not shown) [Compound 126], the IC50 is reported as 50 to 250 nM. `CNc1nc(N2CC3CN(Cc4ccc5[nH]c(C#N)cc5c4C)CC3C2)c2cc(CC(F)(F)F)sc2n1` (stereo not shown) [Compound 127] showed an IC50 of 50 to 250 nM. In the case of `CNc1nc(N2CC3CN(CCc4ccccc4)CC3C2)c2cc(CC(F)(F)F)sc2n1` (stereo not shown) [Compound 128], the IC50 is reported as greater than 1000 nM. For `CNc1nc(N2CC3CCN(Cc4ccc5[nH]c(C#N)cc5c4C)C3C2)c2cc(CC(F)(F)F)sc2n1` (stereo not shown) [Compound 129], the IC50 was greater than 1000 nM. `CNc1nc(N2CC3CN(CCc4ccc5[nH]ccc5c4)CC3C2)c2cc(CC(F)(F)F)sc2n1` (stereo not shown) [Compound 139] showed an IC50 of 250 to 1000 nM. With `CNc1nc(N2CC3CCN(Cc4ccc5[nH]c(=O)[nH]c5c4)C3C2)c2cc(CC(F)(F)F)sc2n1` (stereo not shown) [Compound 140] the IC50 was greater than 1000 nM. `CNc1nc(N2CC3CCN(Cc4ccccc4)C3C2)c2cc(CC(F)(F)F)sc2n1` (stereo not shown) [Compound 141] gave an IC50 greater than 1000 nM. In the case of `CNc1nc(N2CC3CCN(CCc4ccccc4)C3C2)c2cc(CC(F)(F)F)sc2n1` (stereo not shown) [Compound 142], the IC50 is reported as greater than 1000 nM. In the case of `CNc1nc(N2CCC3CCN(Cc4ccc5[nH]c(C#N)cc5c4C)C3C2)c2cc(CC(F)(F)F)sc2n1` (stereo not shown) [Compound 143], the IC50 is reported as greater than 1000 nM. Work on `CNc1nc(N2CCC3CCN(Cc4ccc5[nH]c(=O)[nH]c5c4)C3C2)c2cc(CC(F)(F)F)sc2n1` (stereo not shown) [Compound 144] yielded an IC50 greater than 1000 nM. With `CNc1nc(N2CCC3CCN(Cc4ccccc4)C3C2)c2cc(CC(F)(F)F)sc2n1` (stereo not shown) [Compound 145] the IC50 was greater than 1000 nM. `CNc1nc(N2CC3CN(Cc4ccc(C#N)cc4)CC3C2)c2cc(CC(F)(F)F)sc2n1` (stereo not shown) [Compound 146] was tested, and the IC50 was greater than 1000 nM. `CNc1nc(N2CC3CN(Cc4ccc(NS(C)(=O)=O)cc4)CC3C2)c2cc(CC(F)(F)F)sc2n1` (stereo not shown) [Compound 147] was tested, and the IC50 was greater than 1000 nM. `CNc1nc(N2CC3CN(Cc4ccc(NC(C)=O)cc4)CC3C2)c2cc(CC(F)(F)F)sc2n1` (stereo not shown) [Compound 148] showed an IC50 greater than 1000 nM. With `Cc1nc(N2CC3CN(Cc4ccc5[nH]c(C#N)cc5c4C)CC3C2)c2cc(CC(F)(F)F)sc2n1` (stereo not shown) [Compound 149] the IC50 was greater than 1000 nM. With `Cc1c(CN2CC3CN(c4ncnc5sc(CC(F)(F)F)cc45)CC3C2)ccc2[nH]c(C#N)cc12` (stereo not shown) [Compound 150] the IC50 was greater than 1000 nM. Work on `CNc1nc(N2CC3CN(Cc4ccc5c(cc(C#N)n5CCN5CCN(S(C)(=O)=O)CC5)c4C)CC3C2)c2cc(CC(F)(F)F)sc2n1` (stereo not shown) [Compound 151] yielded an IC50 greater than 1000 nM. `CNc1nc(N2CCC3CN(Cc4ccccc4)CC3C2)c2cc(CC(F)(F)F)sc2n1` (stereo not shown) [Compound 152] showed an IC50 of 250 to 1000 nM. For `CNc1nc(N2CCC3CN(Cc4ccc5[nH]c(C#N)cc5c4C)CC3C2)c2cc(CC(F)(F)F)sc2n1` (stereo not shown) [Compound 153], the IC50 was greater than 1000 nM. Work on `CNc1nc(N2CCC3CN(CCc4ccccc4)CC3C2)c2cc(CC(F)(F)F)sc2n1` (stereo not shown) [Compound 154] yielded an IC50 greater than 1000 nM. Molecule `CNc1nc(N2CCC3CN(CCc4ccc5[nH]ccc5c4)CC3C2)c2cc(CC(F)(F)F)sc2n1` (stereo not shown) [Compound 155] has an IC50 of 250 to 1000 nM. Work on `CNc1nc(N2CC3CCN(Cc4ccccc4)CC3C2)c2cc(CC(F)(F)F)sc2n1` (stereo not shown) [Compound 156] yielded an IC50 greater than 1000 nM. Molecule `CNc1nc(N2CC3CCN(Cc4ccc5[nH]c(C#N)cc5c4C)CC3C2)c2cc(CC(F)(F)F)sc2n1` (stereo not shown) [Compound 157] has an IC50 greater than 1000 nM. Molecule `CNc1nc(N2CC3CCN(CCc4ccccc4)CC3C2)c2cc(CC(F)(F)F)sc2n1` (stereo not shown) [Compound 158] has an IC50 greater than 1000 nM. With `CNc1nc(N2CC3CCN(CCc4ccc5[nH]ccc5c4)CC3C2)c2cc(CC(F)(F)F)sc2n1` (stereo not shown) [Compound 159] the IC50 was greater than 1000 nM.
